The subject of the experiment is cells of rat pituitary glands. Kind of experiment: in vitro growth hormone release assay in rat pituitary cell cultures (ir GH measured by radioimmunoassay). The experiment is classed as cell-based. The settings on record: for intrinsic biological activity / potency: in equimolar ratios, side-by-side comparison with synthetic hGRF(1-44)-NH2, incubation 3 to 4 hours, GH release; for intrinsic activity / specific activity: multiple doses factorial design experiments; for intrinsic activity: compared with hGRF(1-44)-NH2; for specific activity: relative to hGRF(1-44)-NH2. How it is done:
To determine the effectiveness of the peptide to promote the release of growth hormone, in vitro assays are carried out using synthetic hGRF(1-44)-NH2 in side-by-side comparison with pGRF(1-44)-NH2 and of a GRF Reference Standard having a known effectiveness to promote the release of growth hormone from pituitary cells. The GRF Reference standard is described and defined in Brazeau, et al., Endocrinology, Vol. 110 A538 (1982) and is an amount of a preparation of rat hypothalamic origin that produces a half- maximal response in terms of GH release in a pituitary cell monolayer bioassay. Cultures are used which include cells of rat pituitary glands removed some four to five days previously. Both cultures of a defined standard medium and cultures which are considered optimal for the secretion of growth hormone are used for the comparative testing, in the general manner described in Brazeau, et al. Regulatory Peptides, 1, 255, 1981. Incubation with the substance to be tested is carried out for 3 to 4 hours, and aliquots of the culture medium are removed and processed to measure their contents in inmunoreactive GH(ir GH) by a well- characterized radioimmunoassay.
To determine the effectiveness of the peptide to promote the release of growth hormone, in vito assays are carried out using synthetic hGRF(1―44)-NH2 in side-by-side comparison with equimolar concentrations of bGRF(1―44)-NH2, as set forth hereinbefore in Example II.
To determine the effectiveness of the peptide to promote the release of growth hormone, in vitro assays are carried out using synthetic hGRF(1―44)-NH2 in side-by-side comparison with equimolar concentrations of the synthetic oGRF(1-44)-NH2 of Example V as set forth hereinbefore in Example II.

Structures are written as SMILES.

The values that follow come from patent EP0137689B1, “GRF analogs” (THE SALK INSTITUTE FOR BIOLOGICAL STUDIES, priority 1983, dated 1986).

Consider `CC[C@H](C)[C@H](NC(=O)[C@H](C)NC(=O)[C@H](CC(=O)O)NC(=O)[C@H](C)NC(=O)[C@@H](N)Cc1ccc(O)cc1)C(=O)N[C@@H](Cc1ccccc1)C(=O)N[C@H](C(=O)N[C@@H](CC(N)=O)C(=O)N[C@@H](CO)C(=O)N[C@@H](Cc1ccc(O)cc1)C(=O)N[C@@H](CCCNC(=N)N)C(=O)N[C@@H](CCCCN)C(=O)N[C@H](C(=O)N[C@@H](CC(C)C)C(=O)NCC(=O)N[C@@H](CCC(N)=O)C(=O)N[C@@H](CC(C)C)C(=O)N[C@@H](CO)C(=O)N[C@@H](C)C(=O)N[C@@H](CCCNC(=N)N)C(=O)N[C@@H](CCCCN)C(=O)N[C@@H](CC(C)C)C(=O)N[C@@H](CC(C)C)C(=O)N[C@@H](CCC(N)=O)C(=O)N[C@@H](CC(=O)O)C(=O)N[C@H](C(=O)N[C@@H](CCSC)C(=O)N[C@@H](CC(N)=O)C(=O)N[C@@H](CCCNC(=N)N)C(=O)N[C@@H](CCC(N)=O)C(=O)N[C@@H](CCC(N)=O)C(=O)NCC(=O)N[C@@H](CCC(=O)O)C(=O)N[C@@H](CCCNC(=N)N)C(=O)N[C@@H](CC(N)=O)C(=O)N[C@@H](CCC(N)=O)C(=O)N[C@@H](CCC(=O)O)C(=O)N[C@@H](CCC(N)=O)C(=O)NCC(=O)N[C@@H](C)C(=O)N[C@@H](CCCCN)C(=O)N[C@H](C(=O)N[C@@H](CCCNC(=N)N)C(=O)N[C@@H](CC(C)C)C(N)=O)C(C)C)[C@@H](C)CC)[C@@H](C)CC)[C@@H](C)O` [oGRF(1-44), H-Tyr-Ala-Asp-Ala-lle-Phe-Thr-Asn-Ser-Tyr-Arg-Lys-lle-Leu-Gly-Gln-Leu-Ser-Ala-Arg-Lys-Leu-Leu-Gln-Asp- lle-Met-Asn-Arg-Gln-Gln-Gly-Glu-Arg-Asn-Gln-Glu-Gln-Gly-Ala-Lys-Val-Arg-Leu-NH2], for which the intrinsic biological activity result is “full intrinsic biological activity”, the potency result is “close to the same potency”, the intrinsic activity entry was “about the same intrinsic activity” and the specific activity result is given as “about 70 % of hGRF(1-44)-NH2”.
`CC[C@H](C)[C@H](NC(=O)[C@H](C)NC(=O)[C@H](CC(=O)O)NC(=O)[C@H](C)NC(=O)[C@@H](N)Cc1ccc(O)cc1)C(=O)N[C@@H](Cc1ccccc1)C(=O)N[C@H](C(=O)N[C@@H](CC(N)=O)C(=O)N[C@@H](CO)C(=O)N[C@@H](Cc1ccc(O)cc1)C(=O)N[C@@H](CCCNC(=N)N)C(=O)N[C@@H](CCCCN)C(=O)N[C@H](C(=O)N[C@@H](CC(C)C)C(=O)NCC(=O)N[C@@H](CCC(N)=O)C(=O)N[C@@H](CC(C)C)C(=O)N[C@@H](CO)C(=O)N[C@@H](C)C(=O)N[C@@H](CCCNC(=N)N)C(=O)N[C@@H](CCCCN)C(=O)N[C@@H](CC(C)C)C(=O)N[C@@H](CC(C)C)C(=O)N[C@@H](CCC(N)=O)C(=O)N[C@@H](CC(=O)O)C(=O)N[C@H](C(=O)N[C@@H](CCSC)C(=O)N[C@@H](CO)C(=O)N[C@@H](CCCNC(=N)N)C(=O)N[C@@H](CCC(N)=O)C(=O)N[C@@H](CCC(N)=O)C(=O)NCC(=O)N[C@@H](CCC(=O)O)C(=O)N[C@@H](CCCNC(=N)N)C(=O)N[C@@H](CC(N)=O)C(=O)N[C@@H](CCC(N)=O)C(=O)N[C@@H](CCC(=O)O)C(=O)N[C@@H](CCC(N)=O)C(=O)NCC(=O)N[C@@H](C)C(=O)N[C@@H](CCCNC(=N)N)C(=O)N[C@H](C(=O)N[C@@H](CCCNC(=N)N)C(=O)N[C@@H](CC(C)C)C(N)=O)C(C)C)[C@@H](C)CC)C(C)C)[C@@H](C)O` [pGRF(1-44)-NH2]: the intrinsic biological activity entry was “full intrinsic biological activity” and the potency result was “close to the same potency”.
As for `CC[C@H](C)[C@H](NC(=O)[C@H](C)NC(=O)[C@H](CC(=O)O)NC(=O)[C@H](C)NC(=O)[C@@H](N)Cc1ccc(O)cc1)C(=O)N[C@@H](Cc1ccccc1)C(=O)N[C@H](C(=O)N[C@@H](CC(N)=O)C(=O)N[C@@H](CO)C(=O)N[C@@H](Cc1ccc(O)cc1)C(=O)N[C@@H](CCCNC(=N)N)C(=O)N[C@@H](CCCCN)C(=O)N[C@H](C(=O)N[C@@H](CC(C)C)C(=O)NCC(=O)N[C@@H](CCC(N)=O)C(=O)N[C@@H](CC(C)C)C(=O)N[C@@H](CO)C(=O)N[C@@H](C)C(=O)N[C@@H](CCCNC(=N)N)C(=O)N[C@@H](CCCCN)C(=O)N[C@@H](CC(C)C)C(=O)N[C@@H](CC(C)C)C(=O)N[C@@H](CCC(N)=O)C(=O)N[C@@H](CC(=O)O)C(=O)N[C@H](C(=O)N[C@@H](CCSC)C(=O)N[C@@H](CC(N)=O)C(=O)N[C@@H](CCCNC(=N)N)C(=O)N[C@@H](CCC(N)=O)C(=O)N[C@@H](CCC(N)=O)C(=O)NCC(=O)N[C@@H](CCC(=O)O)C(=O)N[C@@H](CCCNC(=N)N)C(=O)N[C@@H](CC(N)=O)C(=O)N[C@@H](CCC(N)=O)C(=O)N[C@@H](CCC(=O)O)C(=O)N[C@@H](CCC(N)=O)C(=O)NCC(=O)N[C@@H](C)C(=O)N[C@@H](CCCCN)C(=O)N[C@H](C(=O)N[C@@H](CCCNC(=N)N)C(=O)N[C@@H](CC(C)C)C(N)=O)C(C)C)[C@@H](C)CC)C(C)C)[C@@H](C)O` [bGRF(1-44)-NH2], the intrinsic biological activity result is “full intrinsic biological activity”, the potency result was “close to the same potency”, the intrinsic activity entry is on record as “same intrinsic activity” and the specific activity result is given as “about 70 % of hGRF(1-44)-NH2”.
